Read-outs that look alike come from different tables or passages of the source.
Experiments:
[1] = test system: SARS-CoV-2 Wuhan lineage B, hCoV-19/Australia/VIC01/2020 (EPI_ISL_406844); test: microbe, parasite or virus in culture; assay type: cell-based; conditions: for IC50: Severe acute respiratory syndrome coronavirus 2, Vero C1008, 96 h
in vitro = conditions: African green monkey
[2] = test system: lentiviral particles exhibiting S protein of SARS-CoV-2; test: microbe, parasite or virus in culture; assay type: cell-based; conditions: for inhibition at 25 µM: Severe acute respiratory syndrome coronavirus 2, 48 h, read-out: % Neutralization at 25 µM
[3] = Cytotoxicity of compounds on HEK293T cells (MTT); assay type: cell-based; conditions: human
[4] = test system: main viral protease 3CLPro; conditions: cited from earlier work; for active against 3CLPro at a dose of: range for the four flavonoids
[5] = test system: SARS-CoV-2 Omicron lineage B.1.1.529, hCoV-19/Russia/Moscow171619-031221/2021; test: microbe, parasite or virus in culture; assay type: cell-based; conditions: Severe acute respiratory syndrome coronavirus 2, Vero C1008, 96 h
[6] = test system: SARS-CoV-2 Delta lineage B.1.617.2, hCoV-19/Russia/PSK-2804/2021; test: microbe, parasite or virus in culture; assay type: cell-based; conditions: for IC50: Severe acute respiratory syndrome coronavirus 2, Vero C1008, 96 h
[7] = molecular target: main protease (3CLpro) of SARS-CoV-2 (Severe acute respiratory syndrome coronavirus 2, UniProt P0DTD1); test: biochemical
[8] = Severe acute respiratory syndrome coronavirus 2
[9] = HEK293T cells, 72 h, MTT, read-out: CC50

Question: What does the source list for CC(=O)C1=C(O)C=C2Oc3c(C(=O)CSC(C)C(=O)O)c(O)c(C)c(O)c3[C@@]2(C)C1=O (mixture of isomers) [Compound 5b, (2S)-2-({2-[(1R)-12-acetyl-3,5,11-trihydroxy-1,4-dimethyl-13-oxo-8-oxatricyclo[7.4.0.0^2,7]trideca-2(7),3,5,9,11-pentaen-6-yl]-2-oxoethyl}sulfanyl)propanoic acid and (2R)-2-({2-[(1R)-12-acetyl-3,5,11-trihydroxy-1,4-dimethyl-13-oxo-8-oxatricyclo [7.4.0.0^2,7]trideca-2(7),3,5,9,11-pentaen-6-yl]-2-oxoethyl}sulfanyl)propanoic acid (1:1)]?
Answer: antiviral activity (in words) [1]: low activity; IC50 [1]: 76.5 ± 8.2 µM; CC50 at 4 days (in vitro): 176 ± 22.6 µM; inhibition at 25 µM [2]: 41%; melting point: 91 to 95 °C; CC50 at 72 h [3]: > 1000 µM

Question: For COc1ccc(-c2cc(=O)c3c(O)c(O)c(O)cc3o2)cc1 [4′-O-methylscutellarein], which “activity against the main protease (in words)” value [4] is on record?
Answer: submicromolar

Question: Which IC50 [2, 8] does the source give for CCOC(=O)c1c(CSc2ccccc2)n(C)c2cc(Br)c(O)c(CN(C)C)c12 [Arbidol, reference compound] here?
Answer: 12.6 ± 4.1 µM

Question: And the inhibition at 25 µM [2]?
Answer: 58%

Question: What about the CC50 at 72 h [3, 9] of the same compound?
Answer: 19.8 ± 4.6 µM

Question: With CC(=O)C1=C(O)C=C2Oc3c(C(C)=O)c(O)c(C)c(O)c3[C@@]2(C)C1=O [Compound 1, (R)-(+)-Usnic acid] as the compound, how does the IC50 [5] read?
Answer: 3.7 ± 0.8 µM

Question: What about the IC50 [1] of the same compound?
Answer: 10.9 ± 2.2 µM

Question: What about the CC50 (in vitro) of the same compound?
Answer: 147 ± 22.1 µM

Question: And the “activity against the pseudovirus system (in words)” value [2]?
Answer: is not an entry inhibitor

Question: And the inhibition at 25 µM [2]?
Answer: 12%

Question: What about the IC50 [6] of the same compound?
Answer: 20.9 ± 3.4 µM

Question: What about the CC50 at 72 h [3, 9] of the same compound?
Answer: > 1000 µM

Question: And the “inhibition of the main protease (in words)” value [7]?
Answer: not an inhibitor

Question: For CC(=O)c1c(O)c(C)c(O)c2c1OC1=Cc3onc(C)c3C(=O)[C@@]12C [Compound 2], which “antiviral activity (in words)” value [1] is on record?
Answer: did not exhibit antiviral activity at all

Question: What about the CC50 at 4 days (in vitro) of the same compound?
Answer: 252 ± 31 µM

Question: What about the “In Vitro (Pseudotype-Based Assay)” value [2] of the same compound?
Answer: yes

Question: And the IC50 [2, 8]?
Answer: 30 ± 2.9 µM

Question: What about the inhibition at 25 µM [2] of the same compound?
Answer: 55%

Question: What about the CC50 at 72 h [3] of the same compound?
Answer: > 1000 µM

Question: Which IC50 [5] does the source give for CC(=O)c1c(O)c(C)c(O)c2c1OC1=CC(=O)c3c(C)noc3[C@@]12C [Compound 3] here?
Answer: 3.5 ± 1.1 µM

Question: And the IC50 [1]?
Answer: 9.2 ± 2.4 µM

Question: What about the CC50 at 4 days (in vitro) of the same compound?
Answer: 15.5 ± 2.8 µM

Question: And the IC50 [2, 8]?
Answer: 32 ± 5.1 µM

Question: What about the inhibition at 25 µM [2] of the same compound?
Answer: 65%

Question: And the IC50 [6]?
Answer: 9.1 ± 1.8 µM

Question: What about the CC50 at 72 h [3] of the same compound?
Answer: 150 ± 18.5 µM

Question: With CC(=O)C1=C(O)C=C2Oc3c(C(=O)CSCCC(=O)O)c(O)c(C)c(O)c3[C@@]2(C)C1=O [Compound 5a] as the compound, how does the “antiviral activity (in words)” value [1] read?
Answer: no antiviral activity at all

Question: And the CC50 at 4 days (in vitro)?
Answer: 177 ± 18.2 µM

Question: What about the “activity against the pseudovirus system (in words)” value [2] of the same compound?
Answer: no activity

Question: And the inhibition at 25 µM [2]?
Answer: 0%

Question: And the CC50 at 72 h [3]?
Answer: > 1000 µM

Question: For CC(=O)C1=C(O)C=C2Oc3c(C(C)=O)c(O)c(C)c(O)c3[C@@]2(C)[C@@H]1O [Compound 6], which IC50 [1] is on record?
Answer: 65.3 ± 7.4 µM

Question: And the CC50 (in vitro)?
Answer: 99 ± 12.1 µM

Question: What about the inhibition at 25 µM [2] of the same compound?
Answer: 40%

Question: What about the CC50 at 72 h [3, 9] of the same compound?
Answer: 168 ± 21.2 µM

Question: What about the IC50 [7] of the same compound?
Answer: 112 µM

Question: Which “antiviral activity (in words)” value [1] does the source give for CC(=O)c1c(O)c(C)c(O)c2c1OC1=CC(=O)/C(=C(/C)N)C(=O)[C@@]12C [Compound 7] here?
Answer: has no antiviral activity at all

Question: What about the CC50 at 4 days (in vitro) of the same compound?
Answer: 528 ± 16 µM

Question: What about the inhibition at 25 µM [2] of the same compound?
Answer: 12%

Question: What about the CC50 at 72 h [3] of the same compound?
Answer: 850 ± 22.6 µM

Question: And the IC50 [7]?
Answer: ~200 µM

Question: With CC(=O)C1=C(O)C=C2Oc3c4c(c(C)c(O)c3[C@@]2(C)C1=O)OCC4=O [Compound 8] as the compound, how does the IC50 [5] read?
Answer: 47 ± 6.5 µM

Question: And the IC50 [1]?
Answer: 44.3 ± 5.2 µM

Question: What about the CC50 at 4 days (in vitro) of the same compound?
Answer: 176 ± 19.9 µM

Question: What about the “activity against the pseudovirus system (in words)” value [2] of the same compound?
Answer: no activity

Question: What about the inhibition at 25 µM [2] of the same compound?
Answer: 0%

Question: And the “antiviral activity (in words)” value [6]?
Answer: almost no activity

Question: And the IC50 [6]?
Answer: 95 ± 8.7 µM

Question: What about the CC50 at 72 h [3] of the same compound?
Answer: 358 ± 31.1 µM

Question: And the IC50 [7]?
Answer: ~200 µM

Question: For CC(=O)C1=C(O)C=C2Oc3c(C(=O)CO)c(O)c(C)c(O)c3[C@@]2(C)C1=O [Compound 10, (2R)-4-acetyl-5,11,13-trihydroxy-10-(2-hydroxyacetyl)-2,12-dimethyl-8-oxatricyclo[7.4.0.0^2,7]trideca-1(9),4,6,10,12-pentaen-3-one], which IC50 [5] is on record?
Answer: 17.5 ± 3.8 µM

Question: And the IC50 [1]?
Answer: 25.3 ± 2.1 µM

Question: What about the CC50 at 4 days (in vitro) of the same compound?
Answer: 306 ± 28.6 µM

Question: And the inhibition at 25 µM [2]?
Answer: 45%

Question: What about the IC50 [6] of the same compound?
Answer: 9.7 ± 1.4 µM

Question: What about the melting point of the same compound?
Answer: 107 to 110 °C

Question: And the CC50 at 72 h [3]?
Answer: 750 ± 36.6 µM

Question: What about the IC50 [7] of the same compound?
Answer: ~200 µM

Question: Which results are given for CC(=O)C1=C(O)C[C@H]2Oc3c(C(C)=O)c(O)c(C)c(O)c3[C@@]2(C)C1=O [Compound 11, (2R,7R)-4,10-diacetyl-5,11,13-trihydroxy-2,12-dimethyl-8-oxatricyclo [7.4.0.0^2,7]trideca-1(9),4,10,12-tetraen-3-one]?
Answer: IC50 [1]: 21 ± 3.5 µM; CC50 at 4 days (in vitro): 84.9 ± 12.1 µM; IC50 [2, 8]: 22 ± 3.2 µM; inhibition at 25 µM [2]: 78%; CC50 at 72 h [3]: 469 ± 24.2 µM

Question: What does the source list for CCC1=C(O)C[C@H]2Oc3c(C(C)=O)c(O)c(C)c(O)c3[C@@]2(C)C1=O [Compound 12, (2R,7R)-10-acetyl-4-ethyl-5,11,13-trihydroxy-2,12-dimethyl-8-oxatricyclo[7.4.0.0^2,7]trideca-1(13),4,9,11-tetraen-3-one]?
Answer: IC50 [5]: 60 ± 12.1 µM; IC50 [1]: 91 ± 7.1 µM; CC50 at 4 days (in vitro): 262 ± 32 µM; IC50 [2, 8]: 28 ± 3.7 µM; inhibition at 25 µM [2]: 53%; IC50 [6]: 85 ± 11.2 µM; melting point: 58 to 62 °C; CC50 at 72 h [3]: > 1000 µM

Question: Which IC50 [5] does the source give for CC(=O)c1c(O)c(C)c(O)c2c1O[C@@H]1CC/C(=C(/C)O)C(=O)[C@]21C [Compound 13, (2R,4E,7R)-10-acetyl-11,13-dihydroxy-4-(1-hydroxyethylidene)-2,12-dimethyl-8-oxatricyclo [7.4.0.0^2,7] trideca-1(13),9,11-trien-3-one] here?
Answer: 6.6 ± 1.9 µM

Question: What about the IC50 [1] of the same compound?
Answer: 6.7 ± 1.4 µM

Question: And the CC50 at 4 days (in vitro)?
Answer: 72.7 ± 14.6 µM

Question: What about the IC50 [2] of the same compound?
Answer: 5.28 ± 0.8 µM

Question: What about the IC50 [2, 8] of the same compound?
Answer: 5.3 µM

Question: And the inhibition at 25 µM [2]?
Answer: 95%

Question: And the IC50 [6]?
Answer: 13.5 ± 2.1 µM

Question: And the melting point?
Answer: 100 to 103 °C

Question: And the CC50 at 72 h [3]?
Answer: 151 ± 14.9 µM

Question: Which “antiviral activity (in words)” value [1] does the source give for CC(=O)c1c(O)c(C)c(O)c2c1O[C@@H]1Cc3onc(C)c3C(=O)[C@]21C [Compound 14, (1R,9R)-6-acetyl-3,5-dihydroxy-1,4,14-trimethyl-8,12-dioxa-13-azatetracyclo[7.7.0.0^2,7.0^11,^1⁵]hexadeca-2(7),3,5,11(15),13-pentaen-16-one] here?
Answer: does not exhibit antiviral properties

Question: What about the CC50 at 4 days (in vitro) of the same compound?
Answer: 296 ± 11.9 µM

Question: What about the inhibition at 25 µM [2] of the same compound?
Answer: 15%

Question: What about the melting point of the same compound?
Answer: 152 to 156 °C

Question: And the CC50 at 72 h [3]?
Answer: > 1000 µM

Question: Which “active against 3CLPro at a dose of” value [4] does the source give for O=C1c2c(O)cc(O)cc2O[C@H](c2cc(O)c(O)c(O)c2)[C@H]1O [Dihydromyricetin] here?
Answer: 1.2 to 5.8 µM

Question: For O=c1c(O)c(-c2cc(O)c(O)c(O)c2)oc2cc(O)cc(O)c12 [Myricetin], which “active against 3CLPro at a dose of” value [4] is on record?
Answer: 1.2 to 5.8 µM

Question: For O=c1c(O)c(-c2ccc(O)c(O)c2)oc2cc(O)c(O)c(O)c12 [Quercetagetin], which “active against 3CLPro at a dose of” value [4] is on record?
Answer: 1.2 to 5.8 µM

Question: For CCC(CC)COC(=O)[C@H](C)N[P@](=O)(OC[C@H]1O[C@@](C#N)(c2ccc3c(N)ncnn23)[C@H](O)[C@@H]1O)Oc1ccccc1 [Remdesivir, reference compound], which IC50 [5] is on record?
Answer: 2 ± 0.13 µM

Question: What about the IC50 [1] of the same compound?
Answer: 3.8 ± 0.42 µM

Question: What about the CC50 (in vitro) of the same compound?
Answer: 711 ± 21.2 µM

Question: And the IC50 [6]?
Answer: 2.1 ± 0.16 µM

Question: With O=c1cc(-c2ccc(O)cc2)oc2cc(O)c(O)c(O)c12 [Scutellarein] as the compound, how does the “active against 3CLPro at a dose of” value [4] read?
Answer: 1.2 to 5.8 µM
